Data taken from patent US20050049204A1, “Compounds for the treatment of flaviviridae infections” (priority 2003, published 2005).
Where a name gives a salt, the structure may show the parent alone. Read-outs that look alike come from different tables or passages of the source.

Experiments:
[1] = system: HCV-replicon RNA-containing Huh7 cells (HCV RNA); assay: HCV replicon assay: HCV RNA quantified by Q-RT-PCR after 96 h of compound exposure; type: cell-based, hepatitis C virus (HCV); details: for EC90: read-out: Corrected HCV RNA EC90; for effect on cytoplasmic HCV RNA metabolism: replicon system; for log reduction at 10 µM: read-out: Corrected HCV RNA log10 reduction at 10 μM; for specific inhibition of the replicon: RNR inhibitors tested
Description: (§1) Incubation times differed according to the type of experiment.

[2] = system: rRNA in HCV-replicon RNA-containing Huh7 cells; assay: rRNA levels in HCV replicon cells (cellular toxicity), Q-RT-PCR after 96 h
Description: HCV replicon cells were seeded in the presence of test compound at approximately 10^3 cells per well in a 96-well plate and incubated for 96 hours. rRNA and HCV RNA were quantified by Q-RT-PCR. ●: HCV RNA levels; ◯: rRNA levels; ▾: HCV RNA levels after correction (=subtraction of rRNA) for cellular toxicity. […] The plots shown are the mean results of at least three independent experiments. EC90 values as given in Table 1 are read from the HCV curves corrected for cellular toxicity.
HCV-replicon RNA-containing Huh7 cells (Clone A cells; Apath, LLC, St. Louis, Mo.) were kept in exponential growth in DMEM media (high glucose, no pyruvate) containing 10% fetal bovine serum, 1× non-essential amino acids (100 units/ml), penicillin-streptomycin (100 μg/ml), glutamine (0.292 mg/ml), and G418 (1,000 μg/ml). Antiviral assays were performed in the same medium without G418. […] Cells were seeded in a 6-well plate at 10^5 cells per well. Candidate antiviral compounds were tested as described (Stuyver, et al. “A ribonucleoside analogue that blocks the replication of bovine viral diarrhea and hepatitis C viruses in culture” Antimicrob. Agents Chemother., January 2003, 47 (1), 244-254). Incubation times differed according to the type of experiment. At the end of the incubation step, cells were counted using the trypan-blue exclusion method, and total cellular RNA was isolated (Rneasy 96 kit, Qiagen, CA). Replicon RNA and an internal control (TaqMan Ribosomal RNA Control Reagents, Applied Biosystems, CA) were amplified in a single-step, multiplex RT-PCR protocol, as recommended by the manufacturer and as described (Stuyver, et al. “A ribonucleoside analogue that blocks the replication of bovine viral diarrhea and hepatitis C viruses in culture” Antimicrob. Agents Chemother., January 2003, 47 (1), 244-254).
Replicon cells were incubated in the absence or presence of these anti-metabolites for 96 hours, after which intracellular rRNA and HCV RNA levels were quantified (Table 1).

[3] = system: rRNA in HCV replicon Huh7 cells; assay: Reversal studies with natural nucleosides: rRNA; type: cell-based; details: for log10 reduction rRNA: no nucleoside
Description: as §1
(§2) Cells were incubated with the test compound and, simultaneously, the natural ribo- or 2′-deoxy nucleosides (adenosine, guanosine (G), cytidine (C), uridine (U), 2′-deoxycytidine (dC), 2′-deoxyuridine, thymidine, 2′-deoxyguanosine (dG), and 2′-deoxyadenosine) (Table 2).

[4] = system: HCV replicon RNA in Huh7 cells; assay: Reversal studies with natural nucleosides: HCV RNA; type: cell-based, hepatitis C virus (HCV); details: for log10 reduction HCV: no nucleoside
Description: as §1, §2

[5] = 10 μM, 96 h, corrected by subtraction of rRNA
[6] = 100 μM, 96 h, corrected by subtraction of rRNA
[7] = 96 h, read from HCV curves corrected for rRNA reduction
[8] = Hepatitis C virus, Huh-7, 96 h, read-out: Corrected HCV RNA log10 reduction at 100 μM
[9] = Hepatitis C virus, Huh-7, 96 h, read from HCV curves corrected for rRNA reduction

Compound: O=c1cnn([C@@H]2O[C@H](CO)[C@@H](O)[C@H]2O)c(=S)[nH]1 [2-thio-6-azauridine]
- Corrected HCV RNA log10 reduction at 10 μM [1, 5]: 0.12 ± 0.10 log10
- Log10 RNA reduction (100 μM) HCV ([1]; 100 μM, 96 h): 0.16 ± 0.04 log10
- Corrected HCV RNA log10 reduction at 100 μM [1, 6]: 0.19 ± 0.09 log10
- EC90 [1, 7]: > 100 µM
- effect on cytoplasmic HCV RNA metabolism [1]: little effect
- Log10 RNA reduction (100 μM) rRNA [2]: −0.02 ± 0.12 log10

Compound: O=c1[nH]c(=O)n([C@H]2C[C@H](O)[C@@H](CO)O2)cc1F [2′-deoxy-5FU, 2′-deoxy-5-fluorouridine]
- Corrected HCV RNA log10 reduction at 10 μM [1, 5]: 0.23 ± 0.05 log10
- log reduction at 100 µM [1, 8]: 0.04 ± 0.25
- EC90 [1, 9]: > 100 µM
- Log10 RNA reduction (100 μM) rRNA [2]: 0.73 ± 0.35 log10

Compound: O=c1cnn([C@@H]2O[C@H](CO)[C@@H](O)[C@H]2O)c(=O)[nH]1 [6-aza uridine, 6-aza-uridine]
- EC90 [1, 9]: > 100 µM
- effect on cytoplasmic HCV RNA metabolism [1]: little effect
- Log10 RNA reduction (100 μM) rRNA [2]: 0.61 ± 0.18 log10

Compound: Nc1ccn([C@@H]2C=C(CO)[C@@H](O)[C@H]2O)c(=O)n1 [CPE-C, cyclopentenyl-cytosine]
- EC90 [1, 9]: 2.5 µM
- Log10 RNA reduction (100 μM) rRNA [2]: 1.21 ± 0.16 log10
- log10 reduction rRNA including natural nucleoside ([3]; 2 μM + C at 50 μM): −0.04 ± 0.01 log10
- log10 reduction rRNA including natural nucleoside ([3]; 2 μM + U at 50 μM): 0.32 ± 0.03 log10
- log10 reduction rRNA ([3]; 2 μM): 0.99 ± 0.04 log10
- log10 reduction HCV including natural nucleoside ([4]; 2 μM + C at 50 μM): 0.30 ± 0.06 log10
- log10 reduction HCV including natural nucleoside ([4]; 2 μM + U at 50 μM): 0.58 ± 0.04 log10
- log10 reduction HCV ([4]; 2 μM): 1.76 ± 0.04 log10

Compound: COc1c(C)c2c(c(O)c1CCOP(=O)(O)CP(=O)(O)OC[C@H]1O[C@@H](n3cnc4c(N)ncnc43)[C@H](O)[C@@H]1O)C(=O)OC2 [Compound C2-MAD]
- Corrected HCV RNA log10 reduction at 10 μM [1, 5]: 0.36 ± 0.21 log10
- Log10 RNA reduction (100 μM) HCV ([1]; 100 μM, 96 h): 1.09 ± 0.21 log10
- Corrected HCV RNA log10 reduction at 100 μM [1, 6]: 0.08 ± 0.24 log10
- EC90 [1, 7]: > 100 µM
- Log10 RNA reduction (100 μM) rRNA [2]: 1.00 ± 0.15 log10

Compound: CC(=O)N(O)CCCCCNC(=O)CCC(=O)N(O)CCCCCNC(=O)CCC(=O)N(O)CCCCCN [Deferoxamine, deferoxamine mesylate]
- log reduction at 10 µM ([1]; Hepatitis C virus, Huh-7, 96 h): 0.17 ± 0.11
- log reduction at 100 µM ([1]; Hepatitis C virus, Huh-7, 100 μM, 96 h, corrected by subtraction of rRNA, read-out: Corrected HCV RNA log10 reduction at 100 μM): 0.08 ± 0.03
- log reduction at 100 µM ([1]; Hepatitis C virus, Huh-7, 100 μM, 96 h, read-out: Log10 RNA reduction (100 μM) HCV): 1 ± 0.06
- EC90 [1, 9]: > 100 µM
- specific inhibition of the replicon [1]: none
- Log10 RNA reduction (100 μM) rRNA [2]: 0.92 ± 0.08 log10

Compound: Nc1n[nH]c(N)n1 [Guanazole, guanazole]
- Log10 RNA reduction (100 μM) HCV ([1]; 100 μM, 96 h): 0.25 ± 0.11 log10
- Corrected HCV RNA log10 reduction at 100 μM [1, 6]: 0.32 ± 0.08 log10
- EC90 ([1]; Hepatitis C virus, Huh-7, 96 h): > 100 µM
- log reduction at 10 µM ([1]; Hepatitis C virus, Huh-7, 96 h): 0.05 ± 0.08
- specific inhibition of the replicon [1]: none
- Log10 RNA reduction (100 μM) rRNA [2]: 0.07 ± 0.03 log10

Compound: NC(=O)NO [Hydroxy Urea, hydroxy urea]
- log reduction at 100 µM [1, 8]: -0.08 ± 0.16
- log reduction at 10 µM ([1]; Hepatitis C virus, Huh-7, 10 μM, 96 h, corrected by subtraction of rRNA): 0.06 ± 0.04
- EC90 [1, 9]: > 100 µM
- specific inhibition of the replicon [1]: none
- Log10 RNA reduction (100 μM) rRNA [2]: 0.25 ± 0.20 log10

Compound: COc1c(C)c2c(c(O)c1C/C=C(\C)CCC(=O)O)C(=O)OC2 [MPA, mycophenolic acid]
- Corrected HCV RNA log10 reduction at 10 μM [1, 5]: 0.22 ± 0.01 log10
- log reduction at 100 µM [1, 8]: 0.07 ± 0.47
- EC90 [1, 9]: > 100 µM
- Log10 RNA reduction (100 μM) rRNA [2]: 1.09 ± 0.28 log10

Compound: CN(Cc1cnc2nc(N)nc(N)c2n1)c1ccc(C(=O)N[C@@H](CCC(=O)O)C(=O)O)cc1 [Methotrexate, methotrexate]
- Corrected HCV RNA log10 reduction at 10 μM [1, 5]: 0.15 ± 0.01 log10
- Corrected HCV RNA log10 reduction at 100 μM [1, 6]: 0.11 ± 0.09 log10
- EC90 [1, 9]: > 100 µM
- Log10 RNA reduction (100 μM) rRNA [2]: 0.07 ± 0.10 log10

Compound: NC(=O)c1ncn([C@@H]2O[C@H](CO)[C@@H](O)[C@H]2O)c1O [Mizoribine]
- Corrected HCV RNA log10 reduction at 10 μM [1, 5]: −0.14 ± 0.12 log10
- log reduction at 100 µM [1, 8]: 0.08 ± 0.82
- EC90 [1, 9]: > 100 µM
- Log10 RNA reduction (100 μM) rRNA [2]: 0.21 ± 0.50 log10

Compound: Nc1ccn(C2OC(CO)C(O)C2=CF)c(=O)n1 (stereo not drawn) [Tezacytabine, tezacytabine]
- Corrected HCV RNA log10 reduction at 10 μM [1, 5]: 0.63 ± 0.07 log10
- Log10 RNA reduction (100 μM) HCV ([1]; 100 μM, 96 h): 1.59 ± 0.08 log10
- Corrected HCV RNA log10 reduction at 100 μM [1, 6]: −0.19 ± 0.49 log10
- EC90 [1, 7]: > 100 µM
- specific inhibition of the replicon [1]: none
- Log10 RNA reduction (100 μM) rRNA [2]: 1.78 ± 0.69 log10

Compound: NC(=O)c1csc([C@@H]2O[C@H](CO)[C@@H](O)[C@H]2O)n1 [Tiazofurin, tiazofurin]
- Log10 RNA reduction (100 μM) HCV ([1]; 100 μM, 96 h): 0.86 ± 0.27 log10
- Corrected HCV RNA log10 reduction at 100 μM [1, 6]: −0.13 ± 0.37 log10
- EC90 ([1]; Hepatitis C virus, Huh-7, 96 h): > 100 µM
- log reduction at 10 µM ([1]; Hepatitis C virus, Huh-7, 96 h): 0.04 ± 0.1
- Log10 RNA reduction (100 μM) rRNA [2]: 0.99 ± 0.35 log10

Compound: Nc1ccn([C@@H]2O[C@H](CO)[C@@H](O)C2(F)F)c(=O)n1 [dFdC, difluorodeoxycytidine]
- Corrected HCV RNA log10 reduction at 10 μM [1, 5]: 1.32 ± 0.08 log10
- EC90 ([1]; Hepatitis C virus, Huh-7, 96 h): 0.17 µM
- Corrected HCV RNA log10 reduction ([1]; dFdC tested at 50 μM, 96 h, corrected for rRNA): 1.29 ± 0.11 log10
- Log10 RNA reduction rRNA ([2]; dFdC tested at 50 μM): 0.59 ± 0.05 log10
- log10 reduction rRNA including natural nucleoside ([3]; 1 μM + dC at 50 μM): 0.07 ± 0.02 log10
- log10 reduction rRNA ([3]; 1 μM): 0.52 ± 0.03 log10
- log10 reduction HCV including natural nucleoside ([4]; 1 μM + dC at 50 μM): 0.06 ± 0.00 log10
- log10 reduction HCV ([4]; 1 μM): 1.89 ± 0.07 log10

Compound: Cyclopentyl-cytosine [CP-C]
- Corrected HCV RNA log10 reduction at 10 μM [1, 5]: 0.64 ± 0.10 log10
- Log10 RNA reduction (100 μM) HCV ([1]; 100 μM, 96 h): 1.97 ± 0.38 log10
- Corrected HCV RNA log10 reduction at 100 μM [1, 6]: 1.06 ± 0.26 log10
- EC90 [1, 7]: 25 µM
- Log10 RNA reduction (100 μM) rRNA [2]: 0.91 ± 0.13 log10
- log10 reduction rRNA including natural nucleoside ([3]; 20 μM + C at 50 μM): 0.02 ± 0.00 log10
- log10 reduction rRNA ([3]; 20 μM): 0.87 ± 0.08 log10
- log10 reduction rRNA including natural nucleoside ([3]; 100 μM + C at 50 μM): 0.17 ± 0.01 log10
- log10 reduction rRNA ([3]; 100 μM): 1.21 ± 0.02 log10
- log10 reduction HCV including natural nucleoside ([4]; 20 μM + C at 50 μM): 0.11 ± 0.01 log10
- log10 reduction HCV ([4]; 20 μM): 1.80 ± 0.07 log10
- log10 reduction HCV including natural nucleoside ([4]; 100 μM + C at 50 μM): 0.32 ± 0.11 log10
- log10 reduction HCV ([4]; 100 μM): 2.32 ± 0.08 log10
